The text below walks through data of ChEMBL document CHEMBL3244364, “5,11-dimethyl-2,9-bis(phenylacetyl)-5,11-diazatetracyclo[6.2.2.0(2,7).0(4,9)]dodecane, a potent, novel analgesic” (J Med Chem, 1977).

The term ED50 denotes the dose at which the effect has come halfway, by size or by number of responders.

Active and inactive are the calls of the source.

The subject of data set [1] is Rattus norvegicus. The data set can be described thus: Analgesic activity in sc dosed rat assessed as estimated dose to elevate pain reaction threshold to pressure applied to hind paw of to 50 mmHg. Type of data set: functional.
In data set [2] the test system is Rattus norvegicus. Description: Analgesic activity in rat assessed as ability to prolong reaction time at 3 mg/kg, sc by tail-flick assay in presence of 10 mg/kg, sc naloxone. Type of data set: functional, organism-based. On the technique in general: Thermal pain tests record how soon the animal reacts.
Data set [3] has as its system Rattus norvegicus. Description: Analgesic activity in rat assessed as ability to prolong reaction time at 3 mg/kg, sc by tail-flick assay. The arrangement: dose 3 mg/kg. Type of data set: functional, organism-based.
The test system of data set [4] is Rattus norvegicus. Description: Analgesic activity in rat assessed as elevate pain reaction threshold to pressure applied to hind paw of to 50 mmHg at 50 mg/kg, sc. The arrangement: dose 50 mg/kg. It is filed as functional, organism-based.
Data set [5] concerns Rattus norvegicus. The data set can be described thus: Ratio of morphine ED50 to compound ED50 for analgesic activity in sc dosed rat. Type of data set: functional.
The subject of data set [6] is Rattus norvegicus. The data set can be described thus: Analgesic activity in rat assessed as elevate pain reaction threshold to pressure applied to hind paw of to 50 mmHg at 10 mg/kg, iv. It is filed as functional, organism-based. The arrangement: dose 10 mg/kg.
The species entered for data set [7] is Rattus norvegicus. The data set can be described thus: Toxicity in rat assessed as straub tail. Type of data set: organism-based. The note with it: in vivo.
Data set [8] is filed under the species Rattus norvegicus. The data set can be described thus: Toxicity in rat assessed as catatonia. The note with it: in vivo. Type of data set: organism-based.
The species named for data set [9] is Rattus norvegicus. The data set can be described thus: Toxicity in rat assessed as exopthalmus. The note with it: in vivo. Type of data set: organism-based.
Data set [10] concerns Rattus norvegicus. The data set can be described thus: Analgesic activity in rat assessed as elevate pain reaction threshold to pressure applied to hind paw of to 50 mmHg at 5 mg/kg, iv. Type of data set: functional, organism-based. More on the design: dose 5 mg/kg.
[11] abbreviates: Rattus norvegicus, sc, read-out: ED50.

Consider `CN1CC2C3CN(C)C4CC3(C(=O)Cc3ccccc3)C1CC24C(=O)CC1CCCCC1` (configuration not stated), for which, in the data set on Rattus norvegicus [1] (setting [11]), the ED50 is 10.1 mg/kg.
Regarding `CN1CC2C3CN(C)C4CC3(C(=O)Cc3ccccc3)C1CC24C(=O)Cc1ccccc1` (racemic) [listing 1 of 2 here], the result with Rattus norvegicus [2] was inactive. Moreover, the result in the data set with Rattus norvegicus [3] and with Rattus norvegicus [4] was Active.
Consider `CCN1CC2C3CN(CC)C4CC3(C(=O)Cc3ccccc3)C1CC24C(=O)Cc1ccccc1`, for which the ED50 in the data set on Rattus norvegicus [1] (setting [11]) is 41.1 mg/kg.
On the same count and under the same terms, next, `CCN1CC2C3CN(C)C4CC3(C(=O)Cc3ccccc3)C1CC24C(=O)Cc1ccccc1` (configuration not stated): 29.9 mg/kg.
In the case of `CN1CC2C3CN(C)C4CC3(C(=O)Cc3ccccc3)C1CC24C(=O)Cc1ccccc1` (single isomer, unassigned; (+)), the ED50 with Rattus norvegicus [1] was over 80 mg/kg.
As to `CN1CC2C3CN(C)C4CC3(C(=O)Cc3ccccc3)C1CC24C(=O)Cc1ccccc1` (single isomer, unassigned; (-)), the “Ratio ED50” value with Rattus norvegicus [5] stood at 3. Moreover, the ED50 with Rattus norvegicus [1] is 0.6 mg/kg.
Take `C=CCN1CC2C3CN(C)C4CC3(C(=O)Cc3ccccc3)C1CC24C(=O)Cc1ccccc1` (configuration not stated): the result in the data set on Rattus norvegicus [6] was inactive. Further, the ED50 in the data set with Rattus norvegicus [1] (setting [11]) is over 80 mg/kg.
Take `CN1CC2C3CNC4CC3(C(=O)Cc3ccccc3)C1CC42C(=O)Cc1ccccc1` (configuration not stated): in the data set on Rattus norvegicus [1] (setting [11]), the ED50 is 45 mg/kg.
In the case of `CN1CC2C3CN(C)C4CC3(C(=O)Cc3ccccc3)C1CC24C(=O)Cc1ccccc1` (racemic) [listing 2 of 2 here], the “Ratio ED50” value with Rattus norvegicus [5] stood at 1.5. Also, the Activity entry in the data set listed under Rattus norvegicus [7], in the data set listed under Rattus norvegicus [8] and in the data set filed under Rattus norvegicus [9] was “Toxic” each time. Besides, in the data set on Rattus norvegicus [1], the ED50 is 1 mg/kg.
For the molecule `C=CCN1CC2C3CN(CC=C)C4CC3(C(=O)Cc3ccccc3)C1CC24C(=O)Cc1ccccc1`, the 50% effective dose (ED50) with Rattus norvegicus [1] (setting [11]) was over 81 mg/kg.
On the same count and under the same terms, as for `CN1CC[C@]23c4c5ccc(O)c4O[C@H]2[C@@H](O)C=C[C@H]3[C@H]1C5` [MORPHINE], the figure is 1.5 mg/kg.
For the molecule `CN1CC2C3CN(C)C4CC3(C(=O)CC3CCCCC3)C1CC24C(=O)CC1CCCCC1`, the ED50 in the data set on Rattus norvegicus [1] (setting [11]) was over 81 mg/kg.
The same measure, in the same setting: as for `O=C(Cc1ccccc1)C12CC3NCC1C1CNC2CC31C(=O)Cc1ccccc1`, the figure is over 81 mg/kg.
In the case of `CC(C)=CCN1CC[C@]2(C)c3cc(O)ccc3C[C@H]1[C@H]2C`, in the data set with Rattus norvegicus [10], the result was Active.
